The values that follow come from patent US20070123476A1, “Polyene antibiotic for controlling fungal growth in banana crops” (priority 2004, published 2007).

Structures are written as SMILES. Converted amounts (≈) assume the structure as drawn.

One data set deals with Fusarium oxysporum f.sp. In words: Minimal inhibitory concentration on agar plates containing natamycin (agar diffusion method). The format is cell-based, Fusarium oxysporum f. sp. cubense. The note with it: spores grown on agar plates with different natamycin concentrations, no visible growth. Here is the method:
(§1) The minimal inhibition concentration of these moulds or the minimal effective amount of the antifungal compound was determined using the agar diffusion method, which is well known in the art. Mould spores were grown on agar plates containing different concentrations of natamycin. The concentration of natamycin on which no visible growth could be observed was considered as the minimal inhibitory concentration (MIC) for that particular mould strain.

The next data set deals with M. fijensis. Described as above. It is filed as cell-based, Mycosphaerella fijiensis. The note with it: Pseudocercospora fijiensis; spores grown on agar plates with different natamycin concentrations; no visible growth. The procedure:
as §1

For a further data set, the system named is most fungi. Particulars: general background statement; cited from earlier work.
For data set [1] the following is noted: cited from earlier work.

For the compound `C[C@@H]1C/C=C/C=C/C=C/C=C/[C@H](O[C@@H]2O[C@H](C)[C@@H](O)[C@H](N)[C@@H]2O)C[C@@H]2O[C@](O)(C[C@@H](O)C[C@H]3O[C@@H]3/C=C/C(=O)O1)C[C@H](O)[C@H]2C(=O)O` [natamycin], the minimal inhibitory concentration (MIC) in the data set on Fusarium oxysporum f.sp and against M. fijensis was 3 to 7 µg/mL (≈ 4.51 to 10.5 µM) each time. In addition, the “MIC (Minimal Inhibition Concentration) of most fungi” value with most fungi is listed as “less than 20 ppm”. Moreover, the solubility in water in data set [1] is given as 30-50 ppm.

By MIC is commonly meant the lowest concentration that inhibits growth of the organism. Lower therefore signals greater potency.
